US8476449B2, “Radioactive iodine labeled organic compound or salt thereof” (Nihon Medi-Physics Co., Ltd., priority 2010, dated 2013)
Like-named read-outs stand apart in the source and are kept apart here.

What was measured:
[1] = molecular target: T1, Aβ42 aggregate (Homo sapiens, UniProt P05067); experiment: Evaluation experiment of binding to amyloid β (filter radioactivity); details: Aβ42 aggregate 30 nmol/L, incubation 3 hours
T1 construct: Aβ (1-42) peptide; purchased Peptide Institute, Inc
T1 sequence (P05067 672-713 limits assumed): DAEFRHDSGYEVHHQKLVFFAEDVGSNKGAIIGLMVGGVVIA
Experimental: 0.5 mg of Aβ (1-42) peptide (purchased from Peptide Institute, Inc.) was dissolved in 2 mL of a PBS buffer containing 1 mmol/L of EDTA and incubated at 37° C. for 42 hours, thus preparing an Aβ42 aggregate. A glass tube was charged with a 10 vol % ethanol aqueous solution (900 μL), Aβ42 aggregate (50 μL, final concentration 30 nmol/L), and radioactive iodine-labeled compound 1, radioactive iodine-labeled compound 2, or radioactive iodine-labeled compound 3 (each 50 μL, 0.018-0.097 μCi), and incubation was carried out for 3 hours. B/F separation was carried out using a cell harvester (Brandel, M-24), and the radioactivity on the filter was measured in a γ counter. The proportion (%) of the radioactivity count on the filter relative to the radioactivity count of each sample used was determined, and binding of each compound to the Aβ42 aggregate was evaluated.
As a control, 4-dimethylamino-4′-iodochalcone (hereinafter, called a chalcone derivative) was prepared in accordance with a method described in the literature (Ono et al., Bioorg Med Chem, 15, 6802-6809, 2007), and the same experiment was carried out (radioactivity count in sample: […]-0.37 kBq (0.023-0.01 μCi)).

[2] = mice
Experimental: Mice were decapitated after 2, 10, 30, and 60 minutes, and then each organ was then removed after blood collection, and radiation counts were measured in a γ counter.

[3] = molecular target: tau protein aggregate (Homo sapiens, UniProt P10636); details: tau 0.37 μmol/L, incubated 1 to 1.5 hours, PD-10 column
tau protein aggregate, sequence (P10636 1-441 isoform P10636-8): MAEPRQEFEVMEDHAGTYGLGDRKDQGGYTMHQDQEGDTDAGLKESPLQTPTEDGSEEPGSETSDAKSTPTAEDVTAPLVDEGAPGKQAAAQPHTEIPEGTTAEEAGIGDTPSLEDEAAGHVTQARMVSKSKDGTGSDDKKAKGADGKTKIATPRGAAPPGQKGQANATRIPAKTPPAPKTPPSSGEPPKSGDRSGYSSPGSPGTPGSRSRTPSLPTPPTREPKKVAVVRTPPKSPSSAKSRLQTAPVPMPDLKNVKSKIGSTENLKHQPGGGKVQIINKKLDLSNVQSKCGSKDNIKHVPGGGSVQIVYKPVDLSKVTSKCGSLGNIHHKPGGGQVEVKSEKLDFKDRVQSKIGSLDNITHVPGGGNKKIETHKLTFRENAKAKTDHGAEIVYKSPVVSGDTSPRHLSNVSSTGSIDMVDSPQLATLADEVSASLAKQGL
Experimental: Mixed solutions of a tau protein aggregate (final concentration 0.37 μmol/L, prepared in Example 9) or an non-aggregated tau protein (final concentration 0.37 μmol/L) and radioactive iodine-labeled compound 1 (2.0 kBq (0.055 μCi)), radioactive iodine-labeled compound 2 (20 kBq (0.55 μCi)) or radioactive iodine-labeled form 3 (2.0 kBq (0.055 μCi)) were incubated for 1 hour to 1.5 hours, and then subjected to size exclusion chromatography (PD-10 column (GE Healthcare Japan), eluent: phosphate buffered-saline (PBS)). Subsequently, the radioactivity of an eluted fraction of the tau protein aggregate or the non-aggregated tau protein was measured in a γ counter.

[4] = 2 minutes after tail vein administration
[5] = 10 minutes after tail vein administration
[6] = 30 minutes after tail vein administration
[7] = 60 minutes after tail vein administration

SMILES: CCOC(=O)CN1C(=O)/C(=C/c2ccc(-c3cccc([125I])c3)o2)NC1=S [Radioactive iodine-labeled compound 2, (Z)-Ethyl-2-(4-((5-(3-(^125I)iodophenyl)furan-2-yl)methylene)-5-oxo-2-thioxoimidazolidin-l-yl) acetate]
- Binding to the Aβ42 aggregate (proportion of radioactivity count on the filter) [1]: significantly lower
- Amount of radioactivity in organ: Blood [2, 4]: 9.49 ± 0.82 % ID/g
- Amount of radioactivity in organ: Blood [2, 5]: 2.38 ± 0.88 % ID/g
- Amount of radioactivity in organ: Blood [2, 6]: 1.79 ± 0.11 % ID/g
- Amount of radioactivity in organ: Blood [2, 7]: 1.50 ± 0.10 % ID/g
- Amount of radioactivity in organ: Brain [2, 4]: 0.57 ± 0.07 % ID/g
- Amount of radioactivity in organ: Brain [2, 5]: 0.32 ± 0.02 % ID/g
- Amount of radioactivity in organ: Brain [2, 6]: 0.18 ± 0.02 % ID/g
- Amount of radioactivity in organ: Brain [2, 7]: 0.10 ± 0.03 % ID/g
- Amount of radioactivity in organ: Heart [2, 4]: 7.02 ± 1.23 % ID/g
- Amount of radioactivity in organ: Heart [2, 5]: 2.05 ± 0.29 % ID/g
- Amount of radioactivity in organ: Heart [2, 6]: 1.19 ± 0.39 % ID/g
- Amount of radioactivity in organ: Heart [2, 7]: 1.44 ± 0.39 % ID/g
- Amount of radioactivity in organ: Intestine [2, 4]: 1.85 ± 0.26 % ID/g
- Amount of radioactivity in organ: Intestine [2, 5]: 7.88 ± 1.46 % ID/g
- Amount of radioactivity in organ: Intestine [2, 6]: 17.7 ± 2.22 % ID/g
- Amount of radioactivity in organ: Intestine [2, 7]: 23.4 ± 5.37 % ID/g
- Amount of radioactivity in organ: Kidney [2, 4]: 9.21 ± 0.68 % ID/g
- Amount of radioactivity in organ: Kidney [2, 5]: 9.11 ± 1.15 % ID/g
- Amount of radioactivity in organ: Kidney [2, 6]: 3.86 ± 0.85 % ID/g
- Amount of radioactivity in organ: Kidney [2, 7]: 2.68 ± 0.75 % ID/g
- Amount of radioactivity in organ: Liver [2, 4]: 32.2 ± 1.67 % ID/g
- Amount of radioactivity in organ: Liver [2, 5]: 32.1 ± 2.09 % ID/g
- Amount of radioactivity in organ: Liver [2, 6]: 22.6 ± 3.42 % ID/g
- Amount of radioactivity in organ: Liver [2, 7]: 20.2 ± 1.93 % ID/g
- Amount of radioactivity in organ: Lung [2, 4]: 10.8 ± 1.28 % ID/g
- Amount of radioactivity in organ: Lung [2, 5]: 3.89 ± 0.32 % ID/g
- Amount of radioactivity in organ: Lung [2, 6]: 2.09 ± 0.43 % ID/g
- Amount of radioactivity in organ: Lung [2, 7]: 1.70 ± 0.45 % ID/g
- Amount of radioactivity in organ: Pancreas [2, 4]: 1.79 ± 0.27 % ID/g
- Amount of radioactivity in organ: Pancreas [2, 5]: 0.98 ± 0.08 % ID/g
- Amount of radioactivity in organ: Pancreas [2, 6]: 0.56 ± 0.10 % ID/g
- Amount of radioactivity in organ: Pancreas [2, 7]: 0.45 ± 0.08 % ID/g
- Amount of radioactivity in organ: Spleen [2, 4]: 9.16 ± 2.04 % ID/g
- Amount of radioactivity in organ: Spleen [2, 5]: 12.2 ± 2.28 % ID/g
- Amount of radioactivity in organ: Spleen [2, 6]: 13.6 ± 4.29 % ID/g
- Amount of radioactivity in organ: Spleen [2, 7]: 10.0 ± 2.49 % ID/g
- Amount of radioactivity in organ: Stomach [2, 4]: 0.93 ± 0.36 % ID/g
- Amount of radioactivity in organ: Stomach [2, 5]: 3.39 ± 3.03 % ID/g
- Amount of radioactivity in organ: Stomach [2, 6]: 3.39 ± 2.98 % ID/g
- Amount of radioactivity in organ: Stomach [2, 7]: 5.32 ± 2.68 % ID/g
- Radioactivity of eluted fraction: aggregated tau vs non aggregated tau vs buffer [3]: specifically binding to a tau protein aggregate

SMILES: CCOC(=O)CN1C(=O)/C(=C/c2ccc(-c3cccc([125I])c3)o2)SC1=S [Radioactive iodine-labeled compound 1, (Z)-Ethyl-2-(5-((5-(3-(^125I)iodophenyl)furan-2-yl)methylene)-4-oxo-2-thioxothiazolidin-3-yl) acetate]
- Binding to the Aβ42 aggregate (proportion of radioactivity count on the filter) [1]: significantly lower
- Amount of radioactivity in organ: Blood [2, 4]: 6.70 ± 0.53 % ID/g
- Amount of radioactivity in organ: Blood [2, 5]: 3.58 ± 0.37 % ID/g
- Amount of radioactivity in organ: Blood [2, 6]: 2.27 ± 0.44 % ID/g
- Amount of radioactivity in organ: Blood [2, 7]: 1.59 ± 0.14 % ID/g
- Amount of radioactivity in organ: Brain [2, 4]: 0.23 ± 0.02 % ID/g
- Amount of radioactivity in organ: Brain [2, 5]: 0.16 ± 0.01 % ID/g
- Amount of radioactivity in organ: Brain [2, 6]: 0.15 ± 0.03 % ID/g
- Amount of radioactivity in organ: Brain [2, 7]: 0.11 ± 0.02 % ID/g
- Amount of radioactivity in organ: Heart [2, 4]: 9.41 ± 0.49 % ID/g
- Amount of radioactivity in organ: Heart [2, 5]: 5.05 ± 0.39 % ID/g
- Amount of radioactivity in organ: Heart [2, 6]: 2.38 ± 0.38 % ID/g
- Amount of radioactivity in organ: Heart [2, 7]: 1.39 ± 0.19 % ID/g
- Amount of radioactivity in organ: Intestine [2, 4]: 1.77 ± 0.33 % ID/g
- Amount of radioactivity in organ: Intestine [2, 5]: 7.97 ± 1.24 % ID/g
- Amount of radioactivity in organ: Intestine [2, 6]: 15.1 ± 1.82 % ID/g
- Amount of radioactivity in organ: Intestine [2, 7]: 21.0 ± 2.73 % ID/g
- Amount of radioactivity in organ: Kidney [2, 4]: 8.50 ± 0.83 % ID/g
- Amount of radioactivity in organ: Kidney [2, 5]: 7.64 ± 0.69 % ID/g
- Amount of radioactivity in organ: Kidney [2, 6]: 6.42 ± 1.17 % ID/g
- Amount of radioactivity in organ: Kidney [2, 7]: 3.91 ± 0.18 % ID/g
- Amount of radioactivity in organ: Liver [2, 4]: 43.1 ± 2.07 % ID/g
- Amount of radioactivity in organ: Liver [2, 5]: 29.5 ± 2.17 % ID/g
- Amount of radioactivity in organ: Liver [2, 6]: 14.7 ± 2.27 % ID/g
- Amount of radioactivity in organ: Liver [2, 7]: 11.3 ± 0.87 % ID/g
- Amount of radioactivity in organ: Lung [2, 4]: 13.6 ± 1.00 % ID/g
- Amount of radioactivity in organ: Lung [2, 5]: 4.44 ± 0.52 % ID/g
- Amount of radioactivity in organ: Lung [2, 6]: 2.31 ± 0.46 % ID/g
- Amount of radioactivity in organ: Lung [2, 7]: 1.56 ± 0.22 % ID/g
- Amount of radioactivity in organ: Pancreas [2, 4]: 1.74 ± 0.19 % ID/g
- Amount of radioactivity in organ: Pancreas [2, 5]: 1.75 ± 0.18 % ID/g
- Amount of radioactivity in organ: Pancreas [2, 6]: 1.16 ± 0.17 % ID/g
- Amount of radioactivity in organ: Pancreas [2, 7]: 0.73 ± 0.08 % ID/g
- Amount of radioactivity in organ: Spleen [2, 4]: 6.70 ± 0.54 % ID/g
- Amount of radioactivity in organ: Spleen [2, 5]: 4.11 ± 0.80 % ID/g
- Amount of radioactivity in organ: Spleen [2, 6]: 2.66 ± 0.84 % ID/g
- Amount of radioactivity in organ: Spleen [2, 7]: 1.94 ± 0.40 % ID/g
- Amount of radioactivity in organ: Stomach [2, 4]: 0.75 ± 0.17 % ID/g
- Amount of radioactivity in organ: Stomach [2, 5]: 1.53 ± 0.44 % ID/g
- Amount of radioactivity in organ: Stomach [2, 6]: 3.65 ± 0.78 % ID/g
- Amount of radioactivity in organ: Stomach [2, 7]: 4.51 ± 0.38 % ID/g
- Radioactivity of eluted fraction: aggregated tau vs non aggregated tau vs buffer [3]: specifically binding to a tau protein aggregate
